In patent US8222434B1, “Bactobolin analog and synthesis method thereof” (priority 2009, dated 2012):
“Also recorded” adds a separate entry of the source.

What was measured:
BtaR2 [1] = type: cell-based, B. thailandensis; conditions: 3 h
BtaR2 [2] = type: cell-based, B. thailandensis
B. thailandensis JBT112 = type: cell-based, Burkholderia thailandensis
B. subtilis = type: cell-based, Bacillus subtilis; conditions: disc soaked in sterile medium containing 2 μM 3OHC10-HSL; B. subtilis lawn
S. aureus COL (MRSA) = assay: CLSI microtiter MIC assay; type: cell-based, Staphylococcus aureus; conditions: for Minimum Inhibitory Concentration (MIC): S. aureus COL (MRSA), 24 hours at 35° C., average from two independent experiments
Procedure: (§1) To test the potency of bactobolins, antibiotic assays were carried out against the human pathogens MRSA, VRE and V. parahaemo-lyticus, and against B. subtilis and E. coli (Table 3-C).
(§2) The minimum inhibitory concentrations (MIC) of each bactobolin was determined according to the 2003 guidelines of the Clinical and Laboratory Standards Institute (CLSI, formerly NCCLS) using the microtiter MIC method. Inocula for each test organism were prepared by suspending a colony from an LB agar plate into Tryptic Soy Broth and growing for 3-5 hours at 35° C. with shaking, then adjusting the culture turbidity in PBS to the equivalent of a 1.0 McFarland Standard (3×10^8 CFU/ml). These cell suspensions were used as inocula for microtiter MIC assays. 2.5 μL inoculum, which corresponded to 1×10^6 cells, was added to a 200 μL well containing each bactobolin diluted in cation-adjusted Mueller-Hinton II broth (actual CFU/ml ranged from 5×104 to 1×106), and these were incubated without shaking for 24 hours at 35° C. The MIC was defined as the lowest concentration of bactobolin (μg/ml) in which bacterial growth in the well was not measurable by determining the turbidity at 595 nm (A595) on a 96-well plate reader. See Table S8 for strains used in these assays.

E. faecalis V583 (VRE) = assay: CLSI microtiter MIC assay; type: cell-based, Enterococcus faecalis; conditions: 24 hours at 35° C., average from two independent experiments
Procedure: as §1, §2

[3] = tested on: V. parahaemolyticus LM5674; assay: CLSI microtiter MIC assay; type: cell-based, Vibrio parahaemolyticus
Procedure: as §1, §2

B. subtilis 3610 = assay: CLSI microtiter MIC assay; type: cell-based, Bacillus subtilis; conditions: 24 hours at 35° C., average from two independent experiments
Procedure: as §1, §2

E. coli ATCC25922 = assay: CLSI microtiter MIC assay; type: cell-based, Escherichia coli; conditions: 24 hours at 35° C., average from two independent experiments
Procedure: as §1, §2

[4] = tested on: MRSA, VRE and V. parahaemo-lyticus, B. subtilis and E. coli; assay: Antibiotic assays of bactobolins, overall comparison; type: cell-based; conditions: comparison over Table 3-C strains
Procedure: as §1, §2

E. coli = conditions: relative to bactobolin; cited from earlier work
translation = conditions: relative to bactobolin; cited from earlier work
tumor = conditions: relative to bactobolin; cited from earlier work
[5] = tested on: B. thailandensis E264 (wt); type: cell-based, Burkholderia thailandensis
[6] = tested on: B. thailandensis ΔbtaI1, I2, I3 (JBT112); type: cell-based, Burkholderia thailandensis
[7] = tested on: B. thailandensis ΔbtaT (BD44); type: cell-based, Burkholderia thailandensis

Compound	Activation of btaI2-lacZ transcription (BtaR2 [1])	Restoration of antibiotic production in JBT112 (B. thailandensis JBT112)	Minimum Inhibitory Concentration (MIC) (S. aureus COL (MRSA)) [µg/mL]	Minimum Inhibitory Concentration (MIC) (E. faecalis V583 (VRE)) [µg/mL]	Minimum Inhibitory Concentration (MIC) (B. subtilis 3610) [µg/mL]	Minimum Inhibitory Concentration (MIC) (E. coli ATCC25922) [µg/mL]	Relative potency among bactobolins [4]	further results
CCCCCC(O)CC(=O)N[C@H]1CCOC1=O (stereo partly shown) [Bactobolin 3OHC8-HSL]	Activation	requires exogenous 3OHC8-HSL or 3OHC10-HSL for antibiotic production						BtaR2-dependent induction of lacZ (1233 promoter) (BtaR2 [2]): sufficient for BtaR2-dependent induction of lacZ
CCCCCCCC(O)CC(=O)N[C@H]1CCOC1=O (stereo partly shown) [Bactobolin 3OHC10-HSL]	Activation	requires exogenous 3OHC8-HSL or 3OHC10-HSL for antibiotic production						antibiotic activity of acyl-HSL alone, diffusion disc (B. subtilis): not an antimicrobial molecule; also recorded: does not have antibiotic activity; BtaR2-dependent induction of lacZ (1233 promoter) (BtaR2 [2]): sufficient for BtaR2-dependent induction of lacZ
CCCCCCCC(=O)N[C@H]1CCOC1=O [Bactobolin C8-HSL]	no detectable response	unable to restore antibiotic production						
CCCCCCCCCC(=O)N[C@H]1CCOC1=O [Bactobolin C10-HSL, N-decanoyl-HSL]	response							
CCCCCCCCCCCC(=O)N[C@H]1CCOC1=O [Bactobolin C12-HSL, N-dodecanoyl-HSL]	response							
C[C@@H](N)C(=O)N[C@@H]1[C@@H]2C[C@H](O)CC(O)=C2C(=O)O[C@]1(C)C(Cl)Cl [Bactobolin C]			6.25	>25	12.5	25		Antibiotic effectiveness in words (S. aureus COL (MRSA); MRSA): effective against these strains, though to a lesser extent; Antibiotic effectiveness in words ([3]; V. parahaemolyticus): effective against these strains, though to a lesser extent; Minimum Inhibitory Concentration (MIC) ([3]; V. parahaemolyticus LM5674, 24 hours at 35° C., average from two independent experiments): 1.56 µg/mL
C[C@H](N)C(=O)N[C@@H](C)C(=O)N[C@@H]1[C@@H]2C[C@H](O)CC(O)=C2C(=O)O[C@]1(C)C(Cl)Cl [Bactobolin D]			37.5		100	>100	weakest analog	
C[C@H](N)C(=O)N[C@@H]1[C@H]2C(=C(O)C[C@@H](O)[C@@H]2O)C(=O)O[C@@H]1C [actinobolin]								less active than bactobolin, E. coli kill-assays (E. coli): 21 fold; less active than bactobolin, in vitro inhibition of translation (translation): 1000 fold; less active than bactobolin, murine antitumor activity (tumor): 900 fold
Bactobolin A			0.78	>25	1.56	6.25	more potent than bactobolins C and D	
Bactobolin B				25	0.39	1.56	more potent than bactobolins C and D	Bactobolin B MIC [5]: >25 µg/mL; Bactobolin B MIC [6]: >25 µg/mL; Bactobolin B MIC [7]: >25 µg/mL
